Results from PMC8351955, “Targeting Mycobacterium tuberculosis response to environmental cues for the development of effective antitubercular drugs” (PLoS Biology, 2021).
Where “and” joins values, the source holds several entries; their conditions need not be identical. Identical values can stand only once. Like-named read-outs stand apart in the source and are kept apart here.

How the values were obtained:
[1] = system: CDC1551(rv2390c′::GFP) reporter Mtb strain; settings: for Normalized % induction: Fig. 2C, DMSO = 100
[2] = system: WT Mtb (Erdman) in primary murine BMDMs; experiment: Primary murine bone marrow-derived macrophage infection, CFU; assay type: cell-based, Mycobacterium tuberculosis; settings: Fig. 2E, 10 µM
Experimental: C57BL/6J wild-type mice (Jackson Laboratories) were used for extraction of BMDMs. Cells were harvested and expanded in DMEM containing 10% FBS, 15% L-cell conditioned media, 2 mM L-glutamine, 1 mM sodium pyruvate, and penicillin/streptomycin as needed in a 37°C incubator in a 5% CO2 atmosphere. […] Macrophages were lysed with water containing 0.01% sodium dodecyl sulfate and a dilution series of the samples plated on 7H10 agar for CFU determination.

Mtb [3] = experiment: Mtb growth assay in cholesterol medium (OD600); settings: for OD600: Fig. 2G
Description: (§1) Bacterial growth was tracked by measuring OD600 every 3 days for 12 days. […] Bacterial growth was tracked by measurement of OD600 every 3 days over 12 days.

[4] = system: Mtb growth in J774 macrophage-like cells; experiment: J774 infection in 96-well plates, mKO fluorescence 6 days post-infection; assay type: cell-based, Mycobacterium tuberculosis; settings: for % Growth: Fig. 2D, DMSO = 100
Experimental: For J774 infection in 96-well plates, 1.8 × 10^5 J774 cells were seeded per well in 180 μl of J774 infection media 1 day prior to infection. On the day of the assay, log-phase Mtb constitutively expressing mKO were pelleted and resuspended in 1 ml basal uptake buffer, passed 6× through a tuberculin syringe with a 25 G × 5/8″ needle, then resuspended in J774 infection media to a final OD600 = 0.2. Media was removed from 96-well plate containing the J774 cells, with 140 μl of fresh J774 infection media added back to each well. A volume of 40 μl of the Mtb suspension at OD600 = 0.2 was added to each well, followed by addition of appropriate concentration of compound or DMSO in a 20-μl final volume in J774 infection media (compound final concentration 10 μM, rifampicin final concentration 5 μM, DMSO final concentration 0.1%/well). Bacterial mKO fluorescence was read immediately after infection using a Biotek Synergy Neo2 microplate reader (bottom read monochromator, excitation 543/10 nm, emission 565/10 nm), and again 6 days post-infection. Plates were kept in humidified ziplock bags in a 37°C, 5% CO2 incubator. mKO fluorescence in DMSO-treated control samples were defined as 100% growth, and fluorescence observed in treatment conditions calculated as a percentage from that set value.

Mtb [5] = experiment: Mtb growth assay in standard 7H9 medium (OD600); settings: Fig. 2F
Description: as §1

Mtb-infected J774 cells = settings: 10 μM, 24 hours, 5 days post-infection
Mtb CDC1551 = experiment: Intrabacterial drug accumulation assay (LC-MS); settings: 24-hour exposure, 7H9 pH 7 ± 250 mM NaCl
J774 cells = experiment: Intracellular drug accumulation assay in J774 cells (LC-MS); settings: 24 hours

## CCSc1ccc(CN2CCN(c3nc4ccccc4o3)CC2)cc1 [JSF-4300, 2-(4-(4-(ethylthio)benzyl)piperazin-1-yl)benzo[d]oxazole]
[1]; average of 3 replicates
  Normalized % induction: 125.329%
[1]; individual replicates
  Normalized % induction: 120.3% and 121.44% and 134.248%
[1]; pH 7
  Ability to increase rv2390c′::GFP reporter signal in high [Cl−]: continuing to demonstrate the phenotypes seen with the parental C6 compound
[2]; day 2, average
  CFU/ml: 472667 CFU/ml
[2]; day 2, individual replicates
  CFU/ml: 482000 CFU/ml and 478000 CFU/ml and 458000 CFU/ml
[2]; day 4, average
  CFU/ml: 660000 CFU/ml
[2]; day 4, individual replicates
  CFU/ml: 620000 CFU/ml and 660000 CFU/ml and 700000 CFU/ml
[2]; day 6, average
  CFU/ml: 806667 CFU/ml
[2]; day 6, individual replicates
  CFU/ml: 740000 CFU/ml (2×) and 940000 CFU/ml
[2]; day 8, average
  CFU/ml: 966667 CFU/ml
[2]; day 8, individual replicates
  CFU/ml: 1080000 CFU/ml and 800000 CFU/ml and 1020000 CFU/ml
Mtb [3]; 10 μM, OD600 over 12 days
  Inhibition of Mtb growth in cholesterol media: continuing to demonstrate the phenotypes seen with the parental C6 compound
Mtb [3]; day 3, average
  OD600: 0.06
Mtb [3]; day 3, individual replicates
  OD600: 0.06
Mtb [3]; day 6, average
  OD600: 0.09333
Mtb [3]; day 6, individual replicates
  OD600: 0.1 (2×) and 0.08
Mtb [3]; day 9, average
  OD600: 0.1333
Mtb [3]; day 9, individual replicates
  OD600: 0.14 (2×) and 0.12
Mtb [3]; day 12, average
  OD600: 0.16
Mtb [3]; day 12, individual replicates
  OD600: 0.16 and 0.14 and 0.18
[4]; 10 μM, 6 days post-infection
  Inhibition of Mtb growth in J774 cells: continuing to demonstrate the phenotypes seen with the parental C6 compound
[4]; average of 4 replicates
  % Growth: 60.6248%
[4]; individual replicates
  % Growth: 59.61% and 62.908% and 58.5309% and 61.4502%
Mtb [5]; day 3, average
  OD600: 0.1733
Mtb [5]; day 3, individual replicates
  OD600: 0.18 (2×) and 0.16
Mtb [5]; day 6, average
  OD600: 0.3867
Mtb [5]; day 6, individual replicates
  OD600: 0.38 (2×) and 0.4
Mtb [5]; day 9, average
  OD600: 0.4933
Mtb [5]; day 9, individual replicates
  OD600: 0.48 (2×) and 0.52
Mtb [5]; day 12, average
  OD600: 0.6467
Mtb [5]; day 12, individual replicates
  OD600: 0.64 (2×) and 0.66
Mtb-infected J774 cells
  Accumulation in Mtb-infected J774 cells: robust accumulation
Mtb CDC1551
  Intrabacterial accumulation in Mtb: robust accumulation
J774 cells
  Intracellular accumulation in J774 cells: robust accumulation
